Experimental data: PubChem BioAssay AID1963842 (Molecular Pharmacology Branch, DTP, NCI, 2024)

Test system: 677734-321-R-J1-PDC complex spheroid viability
Assay: Anticancer human tumor 677734-321-R-J1-PDC patient-derived soft tissue sarcoma cell line growth inhibition [POLQ]
Details: for IC50: curve of first compound; for viability, T/C: stronger effect = lower value; active = viability on the fitted dose curve at most 10% of control; inactive = the rest
Description: Multicellular complex tumor spheroid response to Polymerase (POL) inhibitors (novobiocin, ART-558, RP6685) in combination with a variety of drugs and investigational agents in selected tumor cell lines
The POL inhibitors (novobiocin, ART-558, and RP6685) were evaluated both individually and in combination with standard of care and investigational anticancer small molecules within a complex spheroid model of solid tumors. . Complex spheroids include a stromal component modeled by human endothelial cells (HUVEC) and fibroblasts modeled by human mesenchymal stem cells (MSCs). The concentration ranges selected for each drug and investigational agent were based upon clinically achievable concentrations if the clinical Cmax of the agent was known.
Compounds. The drugs and investigational agents: novobiocin (NSC847541), ART-558 (NSC835418), RP-6685 (NSC848927), peposertib (NSC802822), ceralasertib (NSC780249), elimusertib (NSC800525), camonsertib (NSC841442), AZD-1390 (NSC803789), olaparib (NSC753686), talazoparib (NSC767125), rucaparib (NSC756644), sotorasib (NSC818433), MRTX-1133 (NSC836407), SN-38 (NSC673596), topotecan (NSC609699), epotoside (NSC141540), doxorubicin (NSC123127), gemcitabine (NSC613327), 5-fluorouracil (NSC19893), paclitaxel (NSC125973), vemurafenib (NSC761431), MSA-2 (NSC828583), SN-011 (NSC837082), adavosertib (NSC754352), prexasertib (NSC758257), carboplatin (NSC241240) and oxaliplatin (NSC266046), were obtained from the National Cancer Institute (NCI) Developmental Therapeutics Program Chemical Repository (21). The FDA-approved anticancer drug set is available from the Developmental Therapeutics Program at https://dtp.cancer.gov/organization/dscb/obtaining/. […] The stock solutions were prepared in dimethyl sulfoxide (DMSO, Sigma-Aldrich, St. Louis, MO, cat. D2650), except for the platinum compounds which were prepared in saline (Quality Biological, Gaithersburg, MD, cat. 114-055-101), at 800-fold the tested concentration and stored at -70 degrees C prior to their use. All drugs and investigational agents were tested over a range starting from a high concentration at or near the clinical Cmax and decreasing in half-log increments. If the clinical Cmax for an agent had not been determined, the highest concentration tested was 10 microM, except for SN-38, which was tested at a high concentration of 1 microM.
Cell Culture. All cells were maintained in an incubator at 37 degrees C and 5% CO2 with 95% humidity. The PDC lines were cultured according to standard operating procedures established by the NCI PDMR (https://pdmr.cancer.gov). Table 3 of the manuscript, lists the cell lines along with the number of the three cell types plated to form the mct-spheroids and media for tumor cell growth. After thawing, all PDC lines, except 997537-175-T-J1-PDC and 415267-285-R-J2-PDC, were cultured in Matrigel-coated flasks prepared with a working solution of 1X Ham's F-12 nutrient mix, without supplementation (Thermo Fisher Scientific, cat. 11765054), 100 U/mL penicillin-streptomycin (Thermo Fisher Scientific, cat. 15140122), and 2.5% Matrigel (Corning Inc., Corning, NY, cat. 354248) for the first three passages. The two PDC lines 997537-175-T-J1-PDC and 415267-285-R-J2-PDC were cultured on uncoated flasks. The 857933-349-R-J2-PDC line was cultured in 6C/Colon 1B media containing advanced DMEM/F-12 (Thermo Fisher Scientific, cat. 12634028), 10 mM HEPES (Thermo Fisher Scientific, cat. 15630080), 1X GlutaMAX supplement (Thermo Fisher Scientific, cat. 35050061), 0.1 mg/mL primocin (InvivoGen, San Diego, CA, cat. ant-pm-2), 10% defined fetal bovine serum, heat inactivated (HyClone Laboratories Inc., Logan, UT, cat. SH30070.03HI), 50% L-WRN conditioned media (ATCC, cat. CRL-3276), 1.25 mM N-Acetyl-L-cysteine (Sigma-Aldrich, cat. A9165), 10 mM nicotinamide (Sigma-Aldrich, cat. N0636), 1X B-27 supplement (Thermo Fisher Scientific, cat. 17504044), 1X N-2 supplement (Thermo Fisher Scientific, cat. […]

[1] = second compound 0.0316 µM, first compound 0.0316 µM
[2] = second compound 0.0316 µM, first compound 0.1 µM
[3] = second compound 0.0316 µM, first compound 0.316 µM
[4] = second compound 0.0316 µM, first compound 1 µM
[5] = second compound 0.0316 µM, first compound 3.16 µM
[6] = second compound 0.0316 µM, first compound 10 µM
[7] = second compound 0.1 µM, first compound 0.0316 µM
[8] = second compound 0.1 µM, first compound 0.1 µM
[9] = second compound 0.1 µM, first compound 0.316 µM
[10] = second compound 0.1 µM, first compound 1 µM
[11] = second compound 0.1 µM, first compound 3.16 µM
[12] = second compound 0.1 µM, first compound 10 µM
[13] = second compound 0.316 µM, first compound 0.0316 µM
[14] = second compound 0.316 µM, first compound 0.1 µM
[15] = second compound 0.316 µM, first compound 0.316 µM
[16] = second compound 0.316 µM, first compound 1 µM
[17] = second compound 0.316 µM, first compound 3.16 µM
[18] = second compound 0.316 µM, first compound 10 µM
[19] = second compound 1 µM, first compound 0.0316 µM
[20] = second compound 1 µM, first compound 0.1 µM
[21] = second compound 1 µM, first compound 0.316 µM
[22] = second compound 1 µM, first compound 1 µM
[23] = second compound 1 µM, first compound 3.16 µM
[24] = second compound 1 µM, first compound 10 µM
[25] = second compound 3.16 µM, first compound 0.0316 µM
[26] = second compound 3.16 µM, first compound 0.1 µM
[27] = second compound 3.16 µM, first compound 0.316 µM
[28] = second compound 3.16 µM, first compound 1 µM
[29] = second compound 3.16 µM, first compound 3.16 µM
[30] = second compound 3.16 µM, first compound 10 µM
[31] = second compound 10 µM, first compound 0.0316 µM
[32] = second compound 10 µM, first compound 0.1 µM
[33] = second compound 10 µM, first compound 0.316 µM
[34] = second compound 10 µM, first compound 1 µM
[35] = second compound 10 µM, first compound 3.16 µM
[36] = second compound 10 µM, first compound 10 µM
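Note: spheroids exposed to compounds for one week.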
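Throughout, for viability, T/C: 100% = vehicle DMSO treated spheroids.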

Nc1ccn(C2OC(CO)C(O)C2(F)F)c(=O)n1 (centres undefined) + COC1C(OC(N)=O)C(O)C(Oc2ccc3c(O)c(NC(=O)c4ccc(O)c(CC=C(C)C)c4)c(=O)oc3c2C)OC1(C)C
< 31.6 nM: IC50 (second compound 0.0316 µM) | IC50 (second compound 0.1 µM) | IC50 (second compound 0.316 µM) | IC50 (second compound 1 µM) | IC50 (second compound 3.16 µM) | IC50 (second compound 10 µM)
inactive: viability, T/C [1] 32.5% | viability, T/C [2] 15.3% | viability, T/C [3] 13.9% | viability, T/C [4] 11.8% | viability, T/C [5] 10.9% | viability, T/C [6] 8.72% | viability, T/C [7] 38.9% | viability, T/C [8] 17.6% | viability, T/C [9] 14% | viability, T/C [10] 12.8% | viability, T/C [11] 8.3% | viability, T/C [12] 9.61% | viability, T/C [13] 30.9% | viability, T/C [14] 16.8% | viability, T/C [15] 15.9% | viability, T/C [16] 13.1% | viability, T/C [17] 12.1% | viability, T/C [18] 8.63% | viability, T/C [19] 30.2% | viability, T/C [20] 17.2% | viability, T/C [21] 11.1% | viability, T/C [22] 14.3% | viability, T/C [23] 11.7% | viability, T/C [24] 7.96% | viability, T/C [25] 30.1% | viability, T/C [26] 16.6% | viability, T/C [27] 12.9% | viability, T/C [28] 14.5% | viability, T/C [29] 11.4% | viability, T/C [30] 8.33% | viability, T/C [31] 39.1% | viability, T/C [32] 12.8% | viability, T/C [33] 12.1% | viability, T/C [34] 13.1% | viability, T/C [35] 11.1% | viability, T/C [36] 11%

O=c1[nH]cc(F)c(=O)[nH]1 + COC1C(OC(N)=O)C(O)C(Oc2ccc3c(O)c(NC(=O)c4ccc(O)c(CC=C(C)C)c4)c(=O)oc3c2C)OC1(C)C
6550 nM: IC50 (second compound 3.16 µM)
2780 nM: IC50 (second compound 0.0316 µM)
inactive: viability, T/C [1] 113% | viability, T/C [2] 98.6% | viability, T/C [3] 106% | viability, T/C [4] 94.8% | viability, T/C [5] 44.4% | viability, T/C [6] 40.5% | viability, T/C [7] 111% | viability, T/C [8] 103% | viability, T/C [9] 103% | viability, T/C [10] 91.9% | viability, T/C [11] 49.3% | viability, T/C [12] 43.2% | viability, T/C [13] 107% | viability, T/C [14] 102% | viability, T/C [15] 108% | viability, T/C [16] 98.5% | viability, T/C [17] 46.2% | viability, T/C [18] 37.1% | viability, T/C [19] 117% | viability, T/C [20] 101% | viability, T/C [21] 112% | viability, T/C [22] 91.6% | viability, T/C [23] 50.2% | viability, T/C [24] 41.1% | viability, T/C [25] 106% | viability, T/C [26] 101% | viability, T/C [27] 121% | viability, T/C [28] 83.7% | viability, T/C [29] 63.1% | viability, T/C [30] 42.8% | viability, T/C [31] 105% | viability, T/C [32] 107% | viability, T/C [33] 115% | viability, T/C [34] 89.7% | viability, T/C [35] 47.5% | viability, T/C [36] 43.3%
3130 nM: IC50 (second compound 0.1 µM)
2870 nM: IC50 (second compound 10 µM)
2910 nM: IC50 (second compound 0.316 µM)
3150 nM: IC50 (second compound 1 µM)
